Laboratory results: patent US8258099B2, “Pin1-modulating compounds and methods of use thereof” (Max-Planck-Gesellschaft zur Foerderung der Wissenschaften …, priority 2004, dated 2012)
Square brackets hold non-standard residues; d marks the D form. Peptide text beside a SMILES is read from it. d(pT) = C[C@H](OP(=O)(O)O)[C@@H](N)C(=O)O; 2Nal = N[C@@H](Cc1ccc2ccccc2c1)C(=O)O; Pip = O=C(O)[C@@H]1CCCCN1

How the values were obtained:
XlPin1 = experiment: Protease free PPIase assay, XlPin1; type: biochemical, X. laevis
Method: Protein concentrations were determined using the extinction coefficient ε280=21030 M^−1 cm^−1 for hPin1, ε280=6979 M^−1 cm^−1 for the hPin1 PPIase domain, ε280=21030 M^−1 cm^−1 for XlPin1, ε280=8250 M^−1 cm^−1 for hPar14 and ε280=8250 M^−1 cm^−1 for hCyp18. Extinction coefficients were calculated using the program ProtParam Tool at ExPASy (SIB, Switzerland). All measurements were done at 10° C. in 35 mM Hepes buffer (pH 7.8).
The determination of the kinetic constants of the cis/trans isomerization within the protease-free system was performed using fluorescence based measurements (Garcia-Echeverria et al., 1993, Zhang et al., 2002) on a Hitachi F-3010 fluorescence spectrophotometer with H-Abz-Ala-Glu-Pro-Phe-NH-Np (SEQ ID NO: 2) as substrate. The substrate stock solution was 12 mM in anhydrous trifluoroethanol/0.55 M LiCl. […] The excitation wavelength was 320 nm (spectral bandwidth 3 nm) and emission was detected at 420 nm (spectral bandwidth 10 nm).
Data analysis was performed by single-exponential nonlinear regression using the SigmaPlot Scientific Graphing System Version 5.00 (Jandel Corp.). […] The rate constant k0 was determined in the absence of Pin1. The first order rate constants kenz was calculated from the equation kenz=kobs−k0. […]

hCyp18 = hCyp18 (Homo sapiens, UniProt P62937); experiment: Protease coupled PPIase assay, hCyp18; type: biochemical
Sequence of hCyp18 (P62937 whole entry): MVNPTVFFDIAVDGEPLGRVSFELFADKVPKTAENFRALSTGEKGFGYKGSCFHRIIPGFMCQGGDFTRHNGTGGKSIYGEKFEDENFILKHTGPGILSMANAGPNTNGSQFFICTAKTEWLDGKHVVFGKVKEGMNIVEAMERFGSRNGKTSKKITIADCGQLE
Method: PPIase activities were monitored on a Hewlett-Packard 8452A diode array spectrophotometer according to Fischer et al., 1984 and Zhang et al., 2002. The hPar14 PPIase activity was measured with Suc-Ala-Arg-Pro-Phe-NH-Np (SEQ ID NO: 3) (final concentration 75 μM) as substrate and α-chymotrypsin (final concentration 60 μM) as isomer specific protease. PPIase activity of hCyp 18 and FKBP12 were measured using Suc-Ala-Ala-Pro-Phe-NH-Np (SEQ ID NO: 7) as substrate (final concentration 16 μM) and α-chymotrypsin (final concentration 60 μM) as isomer specific protease. PPIase activity of hPin1 was measured with Ac-Ala-Ala-Ser(PO3H2)-Pro-Arg-NH-Np (SEQ ID NO: 4) (final concentration 10 μM) as substrate and trypsin (final concentration 60 μM) as isomer specific protease. […] Measurements were monitored at 390 nm.
Data analysis was performed by single-exponential nonlinear regression using the SigmaPlot Scientific Graphing System Version 5.00 (Jandel Corp.). […] The rate constant k0 was determined in the absence of Pin1. The first order rate constants kenz was calculated from the equation kenz=kobs−k0. IC50 and Ki values were determined by fitting the first order rate constants kenz against the concentration of the inhibitory peptide by nonlinear regression according to Schutkowski et al., 1995 or a model for tight binding inhibitors (Morrison, 1969).

[1] = target: T1, interaction of MPM-2 antigens with GST-hPin1 (Homo sapiens, UniProt Q13526); experiment: MPM-2 competition assay; type: binding; conditions: mitotic HeLa cell lysate, 8 μM GST-hPin1
T1 construct: made in house
T1 sequence (Q13526 whole entry): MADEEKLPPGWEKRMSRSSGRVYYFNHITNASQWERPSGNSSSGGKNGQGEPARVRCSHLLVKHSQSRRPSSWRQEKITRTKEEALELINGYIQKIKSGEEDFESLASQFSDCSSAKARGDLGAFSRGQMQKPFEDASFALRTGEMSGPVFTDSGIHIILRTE
Method: FIG. 7 depicts the influence of peptide 17 on the interaction of MPM-2 antigens with hPin1. The indicated concentration of peptide 17 or its nonphosphorylated derivative (control) was incubated with an 8 μM solution of GST-hPin1. After addition of mitotic HeLa cell lysate, GST-hPin1 was extracted from the respective mixture using glutathione sepharose. Samples were analyzed regarding extracted GST-hPin1 and coprecipitated MPM-2 antigenes by SDS PAGE and western blot analysis. Untreated lysate of mitotic HeLa cells was loaded on the first line (extract). MPM-2 antigenes were detected using the monoclonal anti MPM-2 antibody (mouse). GST-hPin1 was detected using an anti hPin1 PPIase domain antiserum (rabbit). Horseradish peroxidase-conjugated antibodies from mouse or rabbit were used as secondary antibodies. […]
1.3 mM of Peptide 17 or its nonphosphorylated derivative were incubated with GST-hPin1 (8 μM) for 2 hours at 4° C. […] Following SDS-PAGE, the samples were analyzed by western blot analysis. GST-hPin1 and coextracted MPM-2 antigens were detected using an anti hPin1 PPIase domain antiserum (rabbit) or monoclonal anti MPM-2 antibody (Upstate Biotechnology) from mouse. […]
MPM-2 antigens are mitotic phosphoproteins that are specifically recognized by the monoclonal antibody MPM-2. […] The coextracted MPM-2 antigenes were detected after SDS PAGE by western blot analysis using the anti MPM-2 antibody. […]

`CC(=O)N[C@@H](Cc1ccccc1)C(=O)N[C@@H](C(=O)N1CCCC[C@H]1C(=O)N[C@@H](Cc1ccc2ccccc2c1)C(=O)N[C@@H](CCC(N)=O)C(N)=O)[C@H](C)OP(=O)(O)O` [Peptide 17, Ac-Phe-D-Thr(PO3H2)-Pip-Nal-Gln-NH2] (Ac-F[d(pT)][Pip][2Nal]Q-NH2) was tested, and the Ki (XlPin1; footnote b) (text of footnote not given), probably XlPin1) was 34.4 nM, the “difference in affinity for recombinant Pin1 of both organisms” value (XlPin1; hPin1 versus XlPin1) was “no marked difference” and the “inhibition of Cyp18” value (hCyp18) was “no inhibition”. The “influence on interaction of MPM-2 antigenes with GST-hPin1” value [1] was “did not influence”.
